Assay results taken from patent US8933232B2, “1,3,4-oxadiazole and 1,3,4-thiadiazole beta-lactamase inhibitors” (priority 2012, dated 2015).
Structures can show the parent of a compound that is named as a salt.

System: bacterial strains that express KPC β-lactamases
Assay: Synergy MIC / standard BLI potentiation MIC assay against strains expressing KPC β-lactamases
Format: cell-based
Conditions: in the presence of a β-lactam; comparator Avibactam
Protocol: The experimental protocol was performed according to Clinical and Laboratory Standards Institute (CLSI) guidelines with modifications as described below (CLSI guidelines can be derived from the CLSI document M07-A9 published in January 2012: “Methods for Dilution Antimicrobial Susceptibility Tests for Bacteria That Grow Aerobically; Approved Standard-Ninth Edition”).
To prepare for MIC testing, frozen glycerol stocks of clinical isolates (Klebsiella pneumoniae, Eschericia coli, Enterobacter spp, Citrobacter spp, or Pseudomonas aeruginosa) were used to streak for isolated colonies on rich, non-selective, tryptic soy agar containing 5% sheep's blood (TSAB). Frozen glycerol stocks of laboratory engineered, isogenic E. coli strains, which contain cloned β-lactamase expressing plasmids were used to streak for isolated colonies on rich, selective LB agar supplemented with 25 μg/mL tetracycline to maintain the plasmid. All strains were incubated at 37° C. for 18-24 hrs.
On the day of testing, primary cultures were started by scraping off 5-10 colonies from the TSAB plates containing clinical strains or the tetracycline supplemented LB plates containing engineered strains. The clinical strain material was suspended in ˜5 mL of cation adjusted Mueller Hinton Broth (CAMHB) in 14 mL culture tubes. The engineered strain material was suspended in CAMHB (supplemented with 25 μg/mL tetracycline) in 14 mL culture tubes. All strains were incubated at 37° C. with aeration (200 rpm) for ˜2 hrs until the optical density at 600 nm (OD600) was >0.1.
The two compound components of the assay were each diluted in CAMHB and added to the 96-well broth microdilution assay plates. 50 μL of the β-lactam was added to each well of the assay plate in 2-fold dilutions with final concentrations ranging from 128 to 0.13 μg/mL. 25 μL, of the BLI compound was added to all wells in the broth microdilution plates at a final concentration of 4 μg/mL. Inoculum cultures were prepared by standardizing the primary cultures to OD600=0.1 and then adding 20 μL of the adjusted primary culture per 1 mL CAMHB for clinical strains or CAMHB (supplemented with tetracycline at 100 μg/mL) for engineered strains, so that the final inoculum density was ˜10^5 colony forming units per milliliter. Diluted inoculum cultures were used to inoculate 25 μl, per well in 96-well broth microdilution assay plates. The final volume of each well was 100 μL and contained a β-lactam at different concentrations, a BLIcompound at 4 μg/mL concentration, the bacterial culture at an OD600 of approximately 0.001 and when necessary tetracycline at 25 μg/mL.
Plates were incubated for 18-20 hours at 37° C. with aeration (200 rpm). Following incubation, growth was confirmed visually placing plates over a viewing apparatus (stand with a mirror underneath) and then OD600 was measured using a SpectraMax 340PC384 plate reader (Molecular Devices, Sunnyvale, Calif.). Growth was defined as turbidity that could be detected with the naked eye or achieving minimum OD600 of 0.1. MIC values were defined as the lowest concentration producing no visible turbidity.
The synergy MIC (sMIC) assay determines the concentration of the BLI required to potentiate the activity of a fixed concentration of a β-lactam antibiotic against β-lactamase producing bacterial strains. The experimental protocol was performed according to Clinical and Laboratory Standards Institute (CLSI) guidelines with modifications as described below (CLSI guidelines can be derived from the CLSI document M07-A9 published in January 2012: “Methods for Dilution Antimicrobial Susceptibility Tests for Bacteria That Grow Aerobically; Approved Standard-Ninth Edition”). […]

| SMILES | more active than Avibactam for at least one bacterial strain that expresses KPC β-lactamase and/or better spectrum of activity against KPC strains |
| --- | --- |
| O=C1N2C[C@@H](CC[C@H]2c2nnc(CCCC3CNC3)o2)N1OS(=O)(=O)O [Compound 743, (2S,5R)-2-(5-(3-(azetidin-3-yl)propyl)-1,3,4-oxadiazol-2-yl)-7-oxo-1,6-diazabicyclo[3.2.1]octan-6-yl hydrogen sulfate] | more active than Avibactam |
| O=C1N2C[C@@H](CC[C@H]2c2nnc(COC3CNC3)o2)N1OS(=O)(=O)O [Compound 744, (2S,5R)-2-(5-((azetidin-3-yloxy)methyl)-1,3,4-oxadiazol-2-yl)-7-oxo-1,6-diazabicyclo[3.2.1]octan-6-yl hydrogen sulfate] | more active than Avibactam |
| O=C1N2C[C@@H](CC[C@H]2c2nnc(CCNC3CNC3)o2)N1OS(=O)(=O)O [Compound 745, (2S,5R)-2-(5-(2-(azetidin-3-ylamino)ethyl)-1,3,4-oxadiazol-2-yl)-7-oxo-1,6-diazabicyclo[3.2.1]octan-6-yl hydrogen sulfate] | more active than Avibactam |
| N=C(N)N1CC(NCc2nnc([C@@H]3CC[C@@H]4CN3C(=O)N4OS(=O)(=O)O)o2)C1 [Compound 746, (2S,5R)-2-(5-(((1-carbamimidoylazetidin-3-yl)amino)methyl)-1,3,4-oxadiazol-2-yl)-7-oxo-1,6-diazabicyclo[3.2.1]octan-6-yl hydrogen sulfate] | more active than Avibactam |
| N=C(N)N[C@H]1C[C@@H](c2nnc([C@@H]3CC[C@@H]4CN3C(=O)N4OS(=O)(=O)O)o2)C1 [Compound 749, 2S,5R)-2-(5-((1s,3R)-3-guanidinocyclobutyl)-1,3,4-oxadiazol-2-yl)-7-oxo-1,6-diazabicyclo[3.2.1]octan-6-yl hydrogen sulfate] | more active than Avibactam |
| O=C1N2C[C@@H](CC[C@H]2c2nnc(C3CC4(CNC4)C3)o2)N1OS(=O)(=O)O [Compound 750, (2S,5R)-2-(5-(2-azaspiro[3.3]heptan-6-yl)-1,3,4-oxadiazol-2-yl)-7-oxo-1,6-diazabicyclo[3.2.1]octan-6-yl hydrogen sulfate] | more active than Avibactam |
| N[C@H]1C[C@H](Cc2nnc([C@@H]3CC[C@@H]4CN3C(=O)N4OS(=O)(=O)O)o2)C1 [Compound 751, (2S,5R)-2-(5-(((1r,3S)-3-aminocyclobutyl)methyl)-1,3,4-oxadiazol-2-yl)-7-oxo-1,6-diazabicyclo[3.2.1]octan-6-yl hydrogen sulfate] | more active than Avibactam |
| N=C(N)NC1CC(Cc2nnc([C@@H]3CC[C@@H]4CN3C(=O)N4OS(=O)(=O)O)o2)C1 (stereo partly drawn) [Compound 752, (2S,5R)-2-(5-(β-guanidinocyclobutyl)methyl)-1,3,4-oxadiazol-2-yl)-7-oxo-1,6-diazabicyclo[3.2.1]octan-6-yl hydrogen sulfate] | more active than Avibactam |
| N[C@H]1C[C@H](CCc2nnc([C@@H]3CC[C@@H]4CN3C(=O)N4OS(=O)(=O)O)o2)C1 [Compound 753, (2S,5R)-2-(5-(2-((1r,3R)-3-aminocyclobutyl)ethyl)-1,3,4-oxadiazol-2-yl)-7-oxo-1,6-diazabicyclo[3.2.1]octan-6-yl hydrogen sulfate] | more active than Avibactam |
| N[C@H]1C[C@@H](CCc2nnc([C@@H]3CC[C@@H]4CN3C(=O)N4OS(=O)(=O)O)o2)C1 [Compound 754, (2S,5R)-2-(5-(2-((1s,3S)-3-aminocyclobutyl)ethyl)-1,3,4-oxadiazol-2-yl)-7-oxo-1,6-diazabicyclo[3.2.1]octan-6-yl hydrogen sulfate] | more active than Avibactam |
